Laboratory results from patent publication US9745554B2, “Method of improving cell proliferation of pancreatic progenitor cells in a pancreatic cell culture” (ReNeuron, Inc., priority 2006, dated 2017).

How the values were obtained:
[1] = tested on: cultured pancreatic cells
Procedure: At least one exogenous growth factor is added to the survival media in an amount sufficient to increase the level of activated Akt in the cultured cells. Typically, the growth factors are added in a concentration range from about 10 ng/ml to about 100 ng/ml of culture media (e.g., 10, 15, 20, 30, 40, 50, 60, 70, 80, 90, 100 ng/ml of culture media). Non-limiting exemplary growth factors suitable for use with the present invention may include members of the IGF, EGF, and PDGF families.

human pancreatic cells = assay: Real-time quantitative RT-PCR of endocrine and progenitor marker gene expression; type: cell-based; details: additive in control media; pancreatic endocrine cultures; FIG. 7
Procedure: To determine the effects of survival media on endocrine lineage cells, we studied the gene expression of our expanded pancreatic cells by quantitative RT-PCR as shown for example in FIG. 6. Total cellular RNA was isolated from cells using Nucleospin RNA II kits (BD Biosciences, Inc.). Reverse transcription was performed using 5 μg of total RNA M-MLV reverse transcriptase (Invitrogen), 10 mM DTT, 0.5 mM dNTP (Sigma, St. Louis, Mo.), 25 ng/μl of Oligo(dt) 12-18 primer (Sigma), RNase inhibitor (Sigma) and 1× First-strand buffer (Invitrogen). The mixture was heated to 65° C. for 5 minutes. Reverse transcriptase was added and incubated at 37° C. for 60 minutes. Reactions were terminated and real-time quantitative PCR was performed according to the manufacturer's instructions using Light Cycler machines 1.0 and 2.0 (Roche) in the presence of […] of 5-fold diluted cDNA. Insulin, glucagon, Somatostatin, PDX-1, Neuro-D1, CK-19, amylase, HNF3-beta, and β-actin primer sequences were designed based on published human mRNA sequences. Data for mRNA was presented according to calculations using absolute quantification methods, or as a fold increase over the control. All expression levels of the different genes were normalized to β-actin. […]

caspases 3 and 7 = assay: Apo-ONE caspase 3/7 assay on cell lysates; type: cell-based, human; details: FIG. 1
Procedure: In some embodiments, the presence of caspases 3 and 7 and the extent of cell death is measured using the APO-ONE™ caspase assay (see, e.g., FIG. 1) according to the manufacturers instructions (Promega Inc., Madison, Wis.).
One of the hallmarks of apoptosis is caspase activation. The downstream caspases 3 and 7 have a consensus cleavage sequence DEVD (SEQ ID NO: 1). For determination of the extent of apoptosis in our cultures, we used the Apo-ONE assay system (Promega), according to the manufacturer's instructions (FIG. 1). Cells were plated on 96 well plates, and cell lysates were prepared in a buffer that supports caspase activity (Promega, Madison, Wis.) and analyzed on a fluorescent plate reader using the Apo-ONE caspase 3/7 fluorescent assay (Promega, Madison, Wis.) at an excitation wavelength was 485 run and an emission wavelength was 530 nm.

Row | Compound | works as exogenous growth factor with the invention [1] | insulin mRNA normalized to β-actin mRNA, fold increase over control media alone (human pancreatic cells) [fold] | caspase activation in pancreatic cells (caspases 3 and 7; 1 μM inhibitor, P0 adherent pancreatic cells) | concentration dependence of caspase inhibition (caspases 3 and 7; three independent experiments)
1 | VEGF | did not work | – | – | –
2 | CC(C)C(NC(=O)c1ccc2ccccc2n1)C(=O)NC(CC(=O)O)C(=O)COc1c(F)cccc1F (stereo not shown) [OPH-109, non-O-methylated Q-VD-OPH] | – | 10 | completely reversed the caspase activation | concentration dependence of caspase inhibition
